{"source": "patent US6713043B2", "about": "(priority 1996, dated 2004)", "key": {"HL-60 cells": {"system": "HL-60 cells", "details": "human"}, "[1]": {"system": "L. pneumophila in mouse J774 macrophages", "assay_type": "cell-based, Legionella pneumophila"}, "F4b in human macrophages": {"system": "F4b in human macrophages", "assay_type": "cell-based, Legionella pneumophila"}, "[2]": {"system": "L. pneumophila in human monocytes", "assay_type": "cell-based, Legionella pneumophila"}, "[3]": {"system": "L. pneumophila in HL-60 cells", "assay_type": "cell-based, Legionella pneumophila"}, "L. pneumophila [4]": {"system": "L. pneumophila", "assay_type": "cell-based, Legionella pneumophila"}, "P. aeruginosa": {"system": "P. aeruginosa", "assay_type": "cell-based, Psuedomonas aeruginosa"}, "F4b [5]": {"system": "F4b", "assay_type": "cell-based, Legionella pneumophila"}, "F4b in HL-60 cells": {"system": "F4b in HL-60 cells", "assay_type": "cell-based, Legionella pneumophila"}, "[6]": {"system": "L. pneumophila in human macrophages", "assay_type": "cell-based, Legionella pneumophila"}, "[7]": {"system": "L. pneumophila infected HL-60 cells", "assay_type": "cell-based, human"}, "[8]": {"details": "in vivo; cited from earlier work"}, "L. pneumophila [9]": {"system": "L. pneumophila", "assay_type": "cell-based, Legionella pneumophila", "remark": "listed apart in the source"}, "F4b [10]": {"system": "F4b", "assay_type": "cell-based, Legionella pneumophila", "remark": "listed apart in the source"}, "L. pneumophila [11]": {"system": "L. pneumophila", "assay": "microbe, parasite or virus in culture", "assay_type": "cell-based, Legionella pneumophila", "details": "for MIC: Legionella pneumophila, 48 h, read-out: MIC (minimum concentration at which no growth occurred)"}, "L. pneumophila [12]": {"system": "L. pneumophila", "assay_type": "cell-based, Legionella pneumophila", "remark": "listed apart in the source"}, "wild type L. pneumophila": {"system": "wild type L. pneumophila", "assay_type": "cell-based, Legionella pneumophila"}, "F4b [13]": {"system": "F4b", "assay_type": "cell-based, Legionella pneumophila", "remark": "listed apart in the source"}}, "note": "“Also recorded” adds a separate entry of the source.", "data": [{"compound": "Cc1ccc(C)c(OCCCC(C)(C)C(=O)O)c1", "note": "[GFZ, Gemfibrozil]", "values": [{"measurement": "effect on HL-60 cell viability", "setting": "HL-60 cells", "result": "did not affect HL-60 cell viability"}, {"measurement": "inhibition of intracellular growth (CFU)", "setting": "[1]", "result": "one log; also recorded: partially inhibited"}, {"measurement": "inhibition of intracellular growth (CFU)", "setting": "F4b in human macrophages", "result": "one log"}, {"measurement": "inhibition of intracellular growth (CFU)", "setting": "[2]", "result": "one log; also recorded: partially inhibited"}, {"measurement": "inhibition of intracellular growth (CFU)", "setting": "[3]", "result": "partially inhibited; also recorded: three logs"}, {"measurement": "inclusion accumulation (EM)", "setting": "L. pneumophila [4]", "result": "accumulated granules"}, {"measurement": "susceptibility to GFZ", "setting": "P. aeruginosa", "result": "not susceptible"}, {"measurement": "inclusion accumulation (EM)", "setting": "F4b [5]", "result": "no apparent difference in the number or size of inclusions"}, {"measurement": "inhibition of intracellular growth (CFU)", "setting": "F4b in HL-60 cells", "result": "one log"}, {"measurement": "inhibition of intracellular growth (CFU)", "setting": "[6]", "result": "partially inhibited"}, {"measurement": "viability of L. pneumophila infected HL-60 cells (MTT reduction)", "setting": "[7]", "result": "increased viability"}, {"measurement": "concentration of gemfibrozil used in humans treated for hyperlipidemia", "setting": "[8]", "result": "15000 to 30000", "unit": "ng/mL"}, {"measurement": "GFZ concentration at which no growth was seen on the CYE plates", "setting": "L. pneumophila [9]", "result": 400, "unit": "µg/mL"}, {"measurement": "bacteriocidal or bacteriostatic", "setting": "L. pneumophila [9]", "result": "bacteriostatic"}, {"measurement": "effect on fatty acid profile", "setting": "F4b [10]", "result": "did not affect the fatty acid profile"}, {"measurement": "growth in AYE broth in presence of GFZ", "setting": "L. pneumophila [11]", "result": "inhibited L. pneumophila growth"}, {"measurement": "MIC", "setting": "L. pneumophila [11]", "result": 10, "unit": "µg/mL"}, {"measurement": "effect on fatty acid profile", "setting": "L. pneumophila [12]", "result": "decreased peak areas for several typical L. pneumophila fatty acids"}]}, {"compound": "CCCN(CCC)S(=O)(=O)c1ccc(C(=O)O)cc1", "note": "[Probenecid, probenecid]", "values": [{"measurement": "MIC", "setting": "L. pneumophila [11]", "result": 160, "unit": "µg/mL"}]}, {"compound": "CC(C)(Oc1ccc(Cl)cc1)C(=O)O", "note": "[clofibric acid]", "values": [{"measurement": "MIC", "setting": "L. pneumophila [11]", "result": 125, "unit": "µg/mL"}]}, {"compound": "CCc1cc(C(N)=S)ccn1", "note": "[ethionamide]", "values": [{"measurement": "sensitivity of wild type L. pneumophila relative to F4b (zone of inhibition)", "setting": "wild type L. pneumophila", "result": "twice as sensitive"}]}, {"compound": "NNC(=O)c1ccncc1", "note": "[isoniazid]", "values": [{"measurement": "sensitivity (zone of inhibition)", "setting": "F4b [13]", "result": "sensitive"}, {"measurement": "sensitivity (zone of inhibition)", "setting": "wild type L. pneumophila", "result": "no sensitivity"}]}]}
